Experimental data taken from ChEMBL document CHEMBL4118038, “Tricyclic Polyprenylated Acylphloroglucinols from St John's Wort, Hypericum perforatum” (J Nat Prod, 2017).

biological target: Acetylcholinesterase (Homo sapiens, UniProt P22303); assay: Inhibition of human erythrocyte AChE using S-acetylthiocholine iodide as substrate preincubated for 20 mins followed by substrate addition measured every 30 secs for 1 hr by Ellman's method; details: not given
Sequence (P22303 whole entry): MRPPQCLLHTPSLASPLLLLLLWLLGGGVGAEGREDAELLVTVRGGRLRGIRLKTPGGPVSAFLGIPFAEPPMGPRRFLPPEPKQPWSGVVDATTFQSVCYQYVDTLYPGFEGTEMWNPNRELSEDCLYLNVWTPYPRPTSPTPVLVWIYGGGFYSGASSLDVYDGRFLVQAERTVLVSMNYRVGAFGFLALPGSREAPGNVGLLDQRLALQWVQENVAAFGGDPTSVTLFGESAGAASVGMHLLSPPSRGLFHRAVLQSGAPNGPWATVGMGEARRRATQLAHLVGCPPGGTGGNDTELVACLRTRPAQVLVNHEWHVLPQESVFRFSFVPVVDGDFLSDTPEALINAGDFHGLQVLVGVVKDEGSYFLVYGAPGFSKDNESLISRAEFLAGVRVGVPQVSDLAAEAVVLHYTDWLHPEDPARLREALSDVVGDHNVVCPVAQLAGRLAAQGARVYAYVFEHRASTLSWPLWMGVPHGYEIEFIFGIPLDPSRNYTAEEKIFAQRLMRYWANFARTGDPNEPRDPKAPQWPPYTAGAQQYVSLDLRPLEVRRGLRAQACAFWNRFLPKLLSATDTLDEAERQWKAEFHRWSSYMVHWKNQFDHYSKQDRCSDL

Point of comparison: `CC(C)=CCC[C@]1(C)[C@@H](CC=C(C)C)C[C@@]2(CC=C(C)C)C(=O)[C@]1(C(=O)C(C)C)C(=O)C1=C2O[C@H](C(C)(C)O)[C@H]1O`, IC50 18.6 µM. Against it:
- C=C(C)[C@H](O)CC[C@]1(C)[C@@H](CC=C(C)C)C[C@@]2(CC=C(C)C)C(=O)[C@]1(C(=O)C(C)C)C(=O)C1=C2O[C@H](C(C)(C)O)C1 — within 1.5-fold, 26.4 µM
- COC(C)(C)/C=C/C[C@]1(C)[C@@H](CC=C(C)C)C[C@]2(CC=C(C)C)C(=O)C3=C(O[C@@H](C(C)(C)O)C3)[C@@]1(C(=O)C(C)C)C2=O — 2.6-fold lower, 7.17 µM
- C=C(C)[C@@H](O)CC[C@]1(C)[C@@H](CC=C(C)C)C[C@]23C[C@@H](C(C)(C)O)OC2=C(CC=C(C)C)C(=O)[C@@]1(C(=O)C(C)C)C3=O — 2-fold lower, 9.13 µM
- CC(C)=CC[C@H]1C[C@@]2(CC=C(C)C)C(=O)[C@](C(=O)C(C)C)(C(=O)C3=C2O[C@H](C(C)(C)O)C3)[C@]1(C)CCC(=O)C(C)C — 1.7-fold lower, 10.9 µM
- C=C(C)[C@H](O)CC[C@]1(C)[C@@H](CC=C(C)C)C[C@]2(CC=C(C)C)C(=O)C3=C(O[C@H](C(C)(C)O)C3)[C@@]1(C(=O)C(C)C)C2=O — within 1.5-fold, 19.6 µM
- C=C(C)[C@@H](O)CC[C@]1(C)[C@@H](CC=C(C)C)C[C@]2(CC=C(C)C)C(=O)C3=C(O[C@H](C(C)(C)O)C3)[C@@]1(C(=O)C(C)C)C2=O — 1.7-fold lower, 10.7 µM
- CC(=O)[C@@]12C(=O)C(CC=C(C)C)=C3O[C@H](C(C)(C)O)C[C@]3(C[C@H](CC=C(C)C)[C@@]1(C)CCC=C(C)C)C2=O — 2.1-fold lower, 8.75 µM
- C=C(C)[C@H](O)CC[C@]1(C)[C@@H](CC=C(C)C)C[C@@]2(CC=C(C)C)C(=O)[C@]1(C(=O)C(C)C)C(=O)C1=C2O[C@@H](C(C)(C)O)C1 — within 1.5-fold, 25.1 µM
- CC(C)=CCC[C@]1(C)[C@@H](CC=C(C)C)C[C@]2(CC=C(C)C)C(=O)C3=C(O[C@@H](C(C)(C)O)[C@@H]3O)[C@@]1(C(=O)C(C)C)C2=O — within 1.5-fold, 12.6 µM
- CC(C)=CCC1=C2O[C@H](C(C)(C)O)C[C@@]23C[C@H](CC=C(C)C)[C@@](C)(CCC(=O)C(C)C)[C@@](C(=O)C(C)C)(C1=O)C3=O — within 1.5-fold, 24.3 µM
- CC(C)=CCC[C@]1(C)[C@@H](CC=C(C)C)C[C@]2(CC=C(C)C)C(=O)C3=C(O[C@H](C(C)(C)O)[C@H]3O)[C@@]1(C(=O)C(C)C)C2=O — 2.1-fold lower, 8.83 µM
- CC(C)=CCC[C@]1(C)[C@@H](CC=C(C)C)C[C@@]2(CC=C(C)C)C(=O)[C@]1(C(=O)C(C)C)C(=O)C1=C2O[C@@H](C(C)(C)O)[C@@H]1O — 1.6-fold lower, 11.3 µM
- COC(C)(C)/C=C/C[C@]1(C)[C@@H](CC=C(C)C)C[C@]2(CC=C(C)C)C(=O)C3=C(O[C@H](C(C)(C)O)C3)[C@@]1(C(=O)C(C)C)C2=O — 4.7-fold lower, 3.98 µM

tested on: SMMC-7721; assay: Cytotoxicity against human SMMC7721 cells assessed as reduction in cell viability after 48 hrs by MTS assay; type: functional, cell-based; details: SMMC-7721, 48 h

Point of comparison: `CC(=O)[C@@]12C(=O)C(CC=C(C)C)=C3O[C@H](C(C)(C)O)C[C@]3(C[C@H](CC=C(C)C)[C@@]1(C)CCC=C(C)C)C2=O`, IC50 10 µM. Against it:
- C=C(C)[C@H](O)CC[C@]1(C)[C@@H](CC=C(C)C)C[C@@]2(CC=C(C)C)C(=O)[C@]1(C(=O)C(C)C)C(=O)C1=C2O[C@H](C(C)(C)O)C1 — within 1.5-fold, 9.1 µM
